Experimental data taken from patent US6107317A, “N-(substituted glycyl)-thiazolidines, pharmaceutical compositions containing them and their use in inhibiting dipeptidyl peptidase-IV” (Novartis AG, priority 1999, dated 2000).
pIC50: −log10 of the molar value. Counter-ions that a name gives are not always drawn.

Assays:
DPP-IV = biological target: T1, DPP-IV (Homo sapiens, UniProt P27487); assay: Caco-2 DPP-IV Assay (inhibition of DPP-IV activity from human colonic carcinoma cell extracts); type: biochemical; settings: solubilized Caco-2 protein 20 μg; substrate H-Alanine-Proline-pNA; pH 7.4; room temperature, 10 minutes
T1 construct: host or cells: Caco-2, differentiated to induce DPP-IV expression; cell extract solubilized in 0.5% nonidet-P40
T1 sequence (P27487 whole entry): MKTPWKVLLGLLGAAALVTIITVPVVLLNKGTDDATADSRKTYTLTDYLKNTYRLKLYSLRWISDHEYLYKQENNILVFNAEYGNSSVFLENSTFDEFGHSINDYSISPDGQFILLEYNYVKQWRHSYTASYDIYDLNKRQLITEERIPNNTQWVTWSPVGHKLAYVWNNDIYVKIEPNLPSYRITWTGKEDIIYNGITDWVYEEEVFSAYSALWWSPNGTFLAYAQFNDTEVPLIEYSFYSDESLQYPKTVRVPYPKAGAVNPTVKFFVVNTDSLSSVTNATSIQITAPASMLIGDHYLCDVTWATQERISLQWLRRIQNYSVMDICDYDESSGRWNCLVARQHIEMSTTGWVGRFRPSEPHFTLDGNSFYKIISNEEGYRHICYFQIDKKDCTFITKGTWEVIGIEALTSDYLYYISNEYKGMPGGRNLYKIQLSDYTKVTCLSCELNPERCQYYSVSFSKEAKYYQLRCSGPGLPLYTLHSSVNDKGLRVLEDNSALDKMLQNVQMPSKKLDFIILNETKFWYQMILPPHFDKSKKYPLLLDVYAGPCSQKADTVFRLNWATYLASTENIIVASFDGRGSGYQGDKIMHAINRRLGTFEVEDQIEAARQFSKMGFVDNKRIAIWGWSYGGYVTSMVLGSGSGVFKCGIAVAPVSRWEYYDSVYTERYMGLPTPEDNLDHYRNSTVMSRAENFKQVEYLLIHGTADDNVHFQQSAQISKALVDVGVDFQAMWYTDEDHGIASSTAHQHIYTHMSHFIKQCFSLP
Experimental: The human colonic carcinoma cell line Caco-2 was obtained from the American Type Culture Collection (ATCC HTB 37). Differentiation of the cells to induce DPP-IV expression was accomplished as described by Reisher, et al. in an article entitled "Increased expression of . . . intestinal cell line Caco-2" in Proc. Natl. Acad. Sci., Vol. 90, pgs. […] Cell extract is prepared from cells solubilized in 10 mM Tris-HCl, 0.15 M NaCl, 0.04 t.i.u. aprotinin, 0.5% nonidet-P40, pH 8.0, which is centrifuged at 35,000 g for 30 min. at 4° C. to remove cell debris. The assay is conducted by adding 20 μg solubilized Caco-2 protein, diluted to a final volume of 125 μl in assay buffer (25 mM Tris-HCl pH 7.4, 140 mM NaCl, 10 mM KCl, 1% bovine serum albumin) to microtiter plate wells. The reaction is initiated by adding 25μl of 1 mM substrate (H-Alanine-Proline-pNA; pNA is p-nitroaniline). The reaction is run at room temperature for 10 minutes after which time a 19 μl volume of 25% glacial acetic acid is added to stop the reaction. […] A standard curve of free p-nitroaniline is generated using 0-500 μM solutions of free pNA in assay buffer. The curve generated is linear and is used for interpolation of substrate consumption (catalytic activity in nmoles substrate cleaved/min). […] The potency of the test compounds as DPP-IV inhibitors, expressed as IC50, is calculated from 8-point, dose-response curves using a 4-parameter logistic function.

human plasma DPP-IV = biological target: T2, human plasma DPP-IV (Homo sapiens, UniProt P27487); assay: DPP-IV activity in human plasma; type: biochemical; settings: substrate H-Glycine-Proline-AMC, pH 7.8, room temperature, 20 min
T2 construct: DPP-IV activity in human and rat plasma; from tissue; host or cells: human plasma
T2 sequence (P27487 39-766 limits assumed): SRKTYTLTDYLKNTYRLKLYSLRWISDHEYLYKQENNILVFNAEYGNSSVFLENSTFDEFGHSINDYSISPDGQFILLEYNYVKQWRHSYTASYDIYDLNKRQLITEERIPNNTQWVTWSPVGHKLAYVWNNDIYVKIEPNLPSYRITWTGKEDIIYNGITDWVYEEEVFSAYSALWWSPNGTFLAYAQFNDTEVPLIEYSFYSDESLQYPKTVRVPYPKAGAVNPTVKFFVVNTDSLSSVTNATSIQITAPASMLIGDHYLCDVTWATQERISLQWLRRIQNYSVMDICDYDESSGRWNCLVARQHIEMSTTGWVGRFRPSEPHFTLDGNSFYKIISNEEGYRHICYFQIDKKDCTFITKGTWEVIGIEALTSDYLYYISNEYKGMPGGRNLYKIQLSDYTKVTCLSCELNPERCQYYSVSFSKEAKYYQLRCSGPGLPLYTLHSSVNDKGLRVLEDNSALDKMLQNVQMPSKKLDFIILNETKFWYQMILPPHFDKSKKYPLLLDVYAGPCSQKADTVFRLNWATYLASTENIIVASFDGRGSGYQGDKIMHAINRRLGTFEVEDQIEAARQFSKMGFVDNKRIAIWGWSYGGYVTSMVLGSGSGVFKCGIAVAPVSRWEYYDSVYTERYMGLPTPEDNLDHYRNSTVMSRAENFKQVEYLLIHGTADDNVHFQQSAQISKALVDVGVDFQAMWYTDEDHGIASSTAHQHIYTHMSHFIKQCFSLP
Experimental: (§1) Briefly, five μl of plasma are added to 96-well flat-bottom mictotiter plates (Falcon), followed by the addition of 5 μl of 80 mM MgCl2 in incubation buffer (25 mM HEPES, 140 mM NaCl, 1% RIA-grade BSA, pH 7.8). After a 5 min. incubation at room temperature, the reaction is initiated by the addition of 10 μl of incubation buffer containing 0.1 mM substrate (H-Glycine-Proline-AMC; AMC is 7-amino-4-methylcoumarin). The plates are covered with aluminum foil (or kept in the dark) and incubated at room temperature for 20 min. […] A fluorescence-concentration curve of free AMC is generated using 0-50 μM solutions of AMC in assay buffer. The curve generated is linear and is used for interpolation of substrate consumption (catalytic activity in nmoles substrate cleaved/min). As with the previous assay, the potency of the test compounds as DPP-IV inhibitors, expressed as IC50, is calculated from 8-point, dose-response curves using a 4 parameter logistic function.

rat plasma DPP-IV = biological target: T3, rat plasma DPP-IV (Rattus norvegicus, UniProt P14740); assay: DPP-IV activity in rat plasma; type: biochemical; settings: substrate H-Glycine-Proline-AMC, pH 7.8, room temperature, 20 min
T3 construct: DPP-IV activity in human and rat plasma; from tissue; host or cells: rat plasma
T3 sequence (P14740 37-767 limits assumed): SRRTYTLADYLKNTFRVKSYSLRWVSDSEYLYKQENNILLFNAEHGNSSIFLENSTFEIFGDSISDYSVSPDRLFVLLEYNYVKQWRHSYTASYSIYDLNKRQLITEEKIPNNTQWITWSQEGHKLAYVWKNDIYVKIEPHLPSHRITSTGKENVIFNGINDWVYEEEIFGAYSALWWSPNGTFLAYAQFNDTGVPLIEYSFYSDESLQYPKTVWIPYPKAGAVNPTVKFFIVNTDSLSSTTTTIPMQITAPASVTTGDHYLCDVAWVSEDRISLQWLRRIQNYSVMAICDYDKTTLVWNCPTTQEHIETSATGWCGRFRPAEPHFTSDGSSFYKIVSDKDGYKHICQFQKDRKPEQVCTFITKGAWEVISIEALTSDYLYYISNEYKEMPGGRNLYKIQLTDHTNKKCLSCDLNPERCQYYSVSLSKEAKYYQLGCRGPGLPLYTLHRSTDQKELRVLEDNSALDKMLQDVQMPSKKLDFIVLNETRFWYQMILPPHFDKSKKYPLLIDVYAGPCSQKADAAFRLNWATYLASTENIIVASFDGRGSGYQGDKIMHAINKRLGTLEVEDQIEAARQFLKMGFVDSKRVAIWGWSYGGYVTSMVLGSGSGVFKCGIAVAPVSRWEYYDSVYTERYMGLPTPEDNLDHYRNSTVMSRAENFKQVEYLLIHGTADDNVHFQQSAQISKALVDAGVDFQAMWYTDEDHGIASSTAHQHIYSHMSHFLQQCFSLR
Experimental: as §1

[1] = diabetic and non-diabetic subjects, Diabetes, Vol. 44, pgs. 1126-1131; cited from earlier work

Row | pIC50 (DPP-IV) | pIC50 (human plasma DPP-IV) | pIC50 (rat plasma DPP-IV) | Compound | degradation when administered by subcutaneous or intravenous routes [1]
1 | 4.60 | 5.24 | 5.48 | O=C(CNC1(CO)CCCC1)N1CCSC1 [Ex. 2, 1-[(1-hydroxymethylcyclopent-1-yl)amino]acetylthiazolidine hydrochloride] | –
2 | 4.51 | 4.68 | 5.15 | O=C(CNCCNc1ccc(Cl)cn1)N1CCSC1 [Ex. 4, 1-[2-[(5-chloropyridin-2-yl)amino]ethylamino]acetylthiazolidine] | –
3 | – | – | – | GLP-I amide: GLP-I amide | rapidly degraded
4 | 4.99 | 5.17 | 4.98 | O=C(CNCCNc1ccccn1)N1CCSC1 [Ex. 1, 1-[2-[(pyridin-2-yl)amino]ethylamino]acetylthiazolidine dihydrochloride] | –
